For series [1], the system named is HIV-1.
Series [2] deals with MT-2 cells. The series can be described thus: Cytotoxicity in MT-2 cells. Particulars: cell culture.
Series [3] relates to MT-2 cells.
Series [4] deals with HIV-1. Particulars: anti-HIV-1; from Mulato and Cherrington, Antiviral Research 36, 91 (1997); cited from earlier work.
Series [5] has as its system HIV-1. In words: microbe, parasite or virus in culture.
For series [6] the following is noted: for PMPA AUC in PBMC Mean / PMPA AUC in Plasma Mean: dog, in vivo, po; for PBMC/Plasma Exposure Ratio / Prodrug in Plasma: dogs, oral, 10 mg-equivalent of PMPA/kg. As to the method: Formulations. The prodrugs were formulated as solutions in 50 mM citric acid within 0.5 hour prior to dose. All compounds used in the studies were synthesized by Gilead Sciences. The following lots were used:
Dose Administration and Sample Collection. The in-life phase of this study was conducted in accordance with the recommendations of the “Guide for the Care and Use of Laboratory Animals” (National Institutes of Health publication 86-23) and was approved by an Institutional Animal Care and Use Committee. Fasted male beagle dogs (10±2 kg) were used for the studies. Each drug was administered as a single dose by oral gavage (1.5-2 ml/kg). The dose was 10 mg-equivalent of PMPA/kg. For PBMCs, blood samples were collected at 0 (pre-dose), 2,8, and 24 h post-dose. […] Blood (1.0 ml) was processed immediately for plasma by centrifugation at 2,000 rpm for 10 min. Plasma samples were frozen and maintained at […] until analyzed.
Peripheral Blood Mononuclear Cell (PBMC) preparation. Whole blood (8 ml) drawn at specified time points was mixed in equal proportion with phosphate buffered saline (PBS), layered onto 15 ml of Ficoll-Paque solution (Pharmacia Biotech,) and centrifuged at 400×g for 40 min. PBMC layer was removed and washed once with PBS. Formed PMBC pellet was reconstituted in 0.5 ml of PBS, cells were resuspended, counted using hemocytometer and maintained at […] until analyzed. The number of cells multiplied by the mean single-cell volume was used in calculation of intracellular concentrations. […] Agents Chemother.
Determination of PMPA and Prodrugs in plasma and PBMCs. […] Derivatized samples were then evaporated to dryness and reconstituted in 100 μl of water for HPLC analysis.
Before intracellular PMPA could be determined by HPLC, the large amounts of adenine related ribonucleotides present in the PBMC extracts had to be removed by selective oxidation.
The HPLC system was comprised of a P4000 solvent delivery system with AS3000 autoinjector and F2000 fluorescence detector (Tlermo Separation, San Jose, Calif.). […] The mobile phases used were: A, 5% acetonitrile in 25 mM potassium phosphate buffer with 5 mM tetrabutyl ammonium bromide (TBABr), pH 6.0; B, 60% acetonitrile in 25 mM potassium phosphate buffer with 5 mM TBABr, pH 6.0. The flow rate was 2 ml/min and the column temperature was maintained at 35° C. by a column oven. The gradient profile was 90% A/10% B for 10 min for PMPA and 65%A/35%B for 10 min for the prodrug. […] Data was acquired and stored by a laboratory data acquisition system (PeakPro, Beckman, Allendale, N.J.).
Pharmacokinetic Calculations. […] The AUC values were calculated using the trapezoidal rule.

A short description of series [7]: Stability / hydrolysis in MT-2 cell extract. It is filed as in vitro ADME. Particulars: 37° C., HEPES buffer pH 7.4. Here is the method: (§1) The in vitro metabolism and stability of separated diastereomers were determined in PLCE, MT-2 extract and human plasma. A biological sample listed below, 80 μL, was transferred into a screw-capped centrifuge tube and incubated at 37° C. for 5 min. A solution containing 0.2 mg/mL of the test compound in a suitable buffer, 20 μL, was added to the biological sample and mixed. The reaction mixture, 20 μL, was immediately sampled and mixed with 60 μL of methanol containing 0.015 mg/mL of 2-hydroxymethylnaphthalene as an internal standard for HPLC analysis. The sample was taken as the time-zero sample. Then, at specific time points, the reaction mixture, 20 μL, was sampled and mixed with 60 μL of methanol containing the internal standard. The mixture thus obtained was centrifuged at 15,000 G for 5 min and the supernatant was analyzed with HPLC under the conditions described below.
(2) MT-2 cell extract was prepared from MT-2 cells according to the published procedure [A. Pompon, I. Lefebvre, J.-L. Imbach, S. Kahn, and D. Farquhar, “Antiviral Chemistry & Chemotherapy”, 5:91-98 (1994)] except for using HEPES buffer described below as the medium.
In the study for MT-2 cell extracts, the test compound was dissolved in HEPES buffer. HEPES buffer contains 0.010 M HEPES, 0.05 M potassium chloride, 0.005 M magnesium chloride, and 0.005 M dl-dithiothreitol. pH 7.4 at 37° C.
(§2) The HPLC analysis was carried out under the following conditions.

Series [8] in a line: Stability in human plasma. It counts as in vitro ADME. Conditions: 37° C., TBS pH 7.5. As to the method: as §1
(3) Human plasma (pooled normal human plasma from George King Biomedical Systems, Inc.)
In the study for human plasma, the test compound was dissolved in TBS. TBS (tris-buffered saline, Sigma) contains 0.05 M Tris, 0.0027 M potassium chloride, and 0.138 M sodium chloride. pH 7.5 at 37° C.
as §2

The test system of series [9] is PLCE (porcine liver carboxyesterase). In words: in vitro. It counts as in vitro ADME. Conditions: 37° C., PBS pH 7.4. Here is the method: as §1
(1) PLCE (porcine liver carboxyesterase from Sigma, 160 u/mg protein, 21 mg protein/mL) diluted 20 fold with PBS (phosphated-buffered saline).
In the study for PLCE, the test compound was dissolved in PBS. PBS (phosphate-buffered saline, Sigma) contains 0.01 M phosphate, 0.0027 M potassium chloride, and 0.137 M sodium chloride. pH 7.4 at 37° C.
as §2

Series [10] is described as follows: Incubation of radiolabeled PMPA prodrugs or PMPA in human whole blood; metabolites in plasma, PBMCs and RBCs. Particulars: human, 1 h. It is filed as in vitro ADME.
Description: After 1 hour, plasma, red blood cells (RBCs) and peripheral blood mononuclear cells (PBMCs) were isolated and analyzed by HPLC with radiometric detection.
Series [11] in a line: in vitro. Conditions: human.
Setting [12] is: activity of diastereomer A versus B.
The mark [13] stands for this setting: cell culture anti-HIV-1 activity, separated diastereomers and 1:1 mixtures.
[14] abbreviates: Human immunodeficiency virus 1, MT2.

Where two headings read alike, the source gives them in different places.

Regarding `CCOC(=O)[C@H](C)N[P@@](=O)(CO[C@H](C)Cn1cnc2c(N)ncnc21)Oc1ccccc1` (mixture of isomers) [Ala-ethyl, Phenyl PMPA, Ethyl L-Alanyl Amidate], the Fold change in series [1] (IC50 relative to PMPA) worked out at 250×. In series [1] (setting [12]), the A/B activity worked out at 10×. For the same compound, the IC50 in [1] (setting [13]) is 20 nM. The compound further showed a CC50 in series [2] of 60 µM.

In series [1] (IC50 relative to PMPA), `COC(=O)[C@H](C)NP(=O)(CO[C@H](C)Cn1cnc2c(N)ncnc21)Oc1ccccc1` (mixture of isomers) [Ala-methylester] came in with a Fold change of 200×. This compound also had an A/B activity in [1] (setting [12]) of 20×. Moreover, the IC50 in series [1] (setting [13]) worked out at 25 nM. Further, the CC50 in [3] amounted to 80 µM.

On to `COC(=O)C(C)NP(=O)(COC(C)Cn1cnc2c(N)ncnc21)Oc1ccccc1` (single isomer, unassigned) [GS-6957a], for which, in [1], the Fold change stood at 670× and the IC50 came out at 7.5 nM.

Regarding `COC(=O)[C@H](C)NP(=O)(CO[C@H](C)Cn1cnc2c(N)ncnc21)Oc1ccccc1` (single isomer, unassigned) [GS-6957b], in series [1], the Fold change is recorded as 33× and it took 150 nM to reach half-maximal inhibition (IC50).

Consider `COC(=O)C(Cc1ccccc1)NP(=O)(COC(C)Cn1cnc2c(N)ncnc21)Oc1ccccc1` (single isomer, unassigned) [GS-7003a], for which, in [1], the Fold change is 500× and the IC50 worked out at 10 nM.

Take `COC(=O)C(Cc1ccccc1)NP(=O)(COC(C)Cn1cnc2c(N)ncnc21)Oc1ccccc1` (single isomer, unassigned) [GS-7003b]: in [1], the Fold change worked out at 50× and the IC50 came out at 100 nM.

In series [1], `CCOC(=O)CNP(=O)(CO[C@H](C)Cn1cnc2c(N)ncnc21)Oc1ccccc1` (single isomer, unassigned) [GS-7335] gave a Fold change of 5× and an IC50 of 1000 nM.

Turning to `CCOC(=O)[C@H](CC)NP(=O)(CO[C@H](C)Cn1cnc2c(N)ncnc21)Oc1ccccc1` (stereo partly drawn) [ABA-ethyl], in series [1], the A/B activity was 7.5×, the Fold change came out at 625× and it took 8 nM to reach half-maximal inhibition (IC50). For the same compound, the CC50 in series [2] was more than 100 µM.

As for `Cc1cn([C@H]2C[C@H](N=[N+]=[N-])[C@@H](CO)O2)c(=O)[nH]c1=O` [AZT], the IC50 in series [4] is 0.17 ± 0.08 µM.

Turning to `Nc1ncnc2c1ncn2CCOCP(=O)(O)O` [Adefovir (PMEA), 9-[2-(phosphonomethoxy)ethyl]adenine], in series [4], the IC50 was 13.4 ± 4.2 µM.

`CC(C)OC(=O)[C@H](C)NP(=O)(CO[C@H](C)Cn1cnc2c(N)ncnc21)Oc1ccccc1` (stereo partly drawn) [Ala-isopropyl] showed an A/B activity in series [1] (setting [12]) of 12×. Moreover, the IC50 in series [5] (setting [14]) was 0.01 µM.

For the compound `Nc1ccn([C@@H]2CS[C@H](CO)O2)c(=O)n1` [Compound 3TC], the IC50 in [4] is 1.8 ± 0.25 µM.

In series [1], `CCOC(=O)CNP(=O)(CO[C@H](C)Cn1cnc2c(N)ncnc21)Oc1ccccc1` (stereo partly drawn) [GS-7119] gave a Fold change of 100× and an IC50 of 50 nM. In addition, in series [6], the “PMPA AUC in PBMC Mean” value is recorded as 530, the “PMPA AUC in Plasma Mean” value amounted to 6.11, the “PBMC/Plasma Exposure Ratio” value amounted to 87 and the “Prodrug in Plasma” value is reported as “YES”. The compound also returned a CC50 in series [2] of more than 100 µM.

`CCOC(=O)C(CC)NP(=O)(COC(C)Cn1cnc2c(N)ncnc21)Oc1ccccc1` (stereo not drawn) [GS-7342] showed an IC50 in series [1] of 4 nM. The Fold change in series [1] (IC50 relative to PMPA) is 1,250×. Further, the IC50 in series [1] (read-out: HIV IC50) was 4 nM. Besides, in series [6], the “PMPA AUC in PBMC Mean” value worked out at 1060, the “PMPA AUC in Plasma Mean” value came out at 4.6, the “PBMC/Plasma Exposure Ratio” value came to 230 and the “Prodrug in Plasma” value is listed as “YES”. Further, in series [7], the “MT-2 extract hydrolysis product” value was “Met. X & PMPA”. Moreover, in series [8], the “Human Plasma Stability (HP) product” value is “Met. Y” and the “Human Plasma Stability (HP) t1/2” value is given as 103. The PLCE hydrolysis product result in series [9] was “Met. X”.

On to `Cc1c(O)cccc1C(=O)N[C@@H](CSc1ccccc1)[C@H](O)CN1C[C@H]2CCCC[C@H]2C[C@H]1C(=O)NC(C)(C)C` [Nelfinavir], for which, in [4], the half-inhibitory concentration (IC50) was 0.006 ± 0.002 µM.

Regarding `C[C@H](Cn1cnc2c(N)ncnc21)OCP(=O)(O)O` [PMPA, 9-[2-(phosphonomethoxy)propyl]adenine], the Fold change in series [1] is 1×. In addition, the IC50 was 6.3 ± 3.3 µM in series [4]; 5 µM in series [5] (setting [14]); 5 µM in series [5] (Human immunodeficiency virus 1, MT2, read-out: HIV-1 Activity IC50). Moreover, the “Metabolites (% of Total Peak Area): PMPApp” value in [10] turned out to be 16%. The CC50 in series [11] is 6 mM.

For the compound `COC(=O)[C@H](Cc1ccccc1)NP(=O)(CO[C@H](C)Cn1cnc2c(N)ncnc21)Oc1ccccc1` (stereo partly drawn) [Phe-methylester], in series [1], the A/B activity was found to be 10×, the Fold change was 170× and the IC50 was 30 nM. This compound also had a CC50 in [2] of 60 µM.

As for `Cc1cn([C@H]2C=C[C@@H](CO)O2)c(=O)[nH]c1=O` [d4T], the IC50 in series [4] is 8 ± 2.5 µM.

(Values after patent US20040018150A1, “Prodrugs of phosphonate nucleotide analogues and methods for selecting and making same” (priority 2003, published 2004).)
